Source: publication PMC10581193 (Microbiology Spectrum, 2023)
In brackets after ≈: the same amount, converted by molar mass.

Assays:
Y48 (MDR) = test: microbe, parasite or virus in culture; format: cell-based, M. tuberculosis; conditions: for MIC: Mycobacterium tuberculosis
[1] = test system: Klebsiella pneumoniae ATCC700603; test: MIC against other strains, agar double dilution; conditions: ATCC700603, 24 h
VERO = test: Cell viability assay (MTT), VERO; format: cell-based; conditions: Chlorocebus sabaeus, 48 h
Method: (§1) Cell viabilities were measured by 3-(4,5-dimethylthiazol-2-yl)−2,5-diphenyltetrazolium bromide (MTT) assay. Briefly, 20 µL of 5 mg/mL MTT solution was added to the culture medium and incubated at 37°C for 3 h. Then 50 µL of 20% (wt/vol) SDS was directly added to each well and incubated at 37°C overnight. The plates were shaken for 15 s and the […] reading were obtained at 570 nm wavelength. The IC50 values were calculated using the GraphPad Prism 8 software.

[2] = test system: Staphylococcus aureus ATCC29213; test: MIC against other strains, agar double dilution; conditions: ATCC29213, 24 h
human PDE6C = target: T1, human PDE6C (Homo sapiens, UniProt P51160); test: IMAP fluorescence polarization assay against PDE6C; format: biochemical
T1 construct: purchased BPS 60060
T1 sequence (P51160 whole entry): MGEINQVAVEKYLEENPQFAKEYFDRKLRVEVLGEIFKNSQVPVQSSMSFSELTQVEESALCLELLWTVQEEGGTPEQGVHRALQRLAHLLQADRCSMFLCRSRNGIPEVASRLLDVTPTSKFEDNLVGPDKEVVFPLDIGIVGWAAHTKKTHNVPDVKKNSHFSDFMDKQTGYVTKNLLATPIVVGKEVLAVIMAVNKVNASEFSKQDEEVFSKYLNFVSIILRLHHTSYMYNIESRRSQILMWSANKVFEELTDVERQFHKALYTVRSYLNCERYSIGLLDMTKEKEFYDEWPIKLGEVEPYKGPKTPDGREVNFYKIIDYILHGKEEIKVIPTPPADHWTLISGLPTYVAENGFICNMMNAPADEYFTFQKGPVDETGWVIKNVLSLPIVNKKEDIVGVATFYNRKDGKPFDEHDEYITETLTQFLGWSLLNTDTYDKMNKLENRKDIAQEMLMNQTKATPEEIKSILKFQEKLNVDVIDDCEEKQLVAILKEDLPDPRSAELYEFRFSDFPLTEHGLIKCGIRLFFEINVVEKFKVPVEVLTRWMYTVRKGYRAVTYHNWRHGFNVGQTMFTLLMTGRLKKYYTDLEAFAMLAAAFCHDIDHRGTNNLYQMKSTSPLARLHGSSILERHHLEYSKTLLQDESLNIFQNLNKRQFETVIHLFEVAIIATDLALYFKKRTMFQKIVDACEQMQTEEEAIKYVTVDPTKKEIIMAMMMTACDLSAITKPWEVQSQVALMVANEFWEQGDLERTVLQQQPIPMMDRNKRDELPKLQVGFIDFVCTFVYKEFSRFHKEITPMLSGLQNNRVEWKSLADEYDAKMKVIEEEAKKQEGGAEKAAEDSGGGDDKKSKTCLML
Method: Prepare assay buffer and stop buffer were prepared. […] Fluorescein Amidite - cyclic Guanosine Monophosphate (FAM-cGMP) was added in the 1× assay buffer for PDE6C, which was the 2× substrate solution. Two times enzyme solution was transferred to the assay plate: (i) assay plate already contained corresponding volume of compound in 100% DMSO; (ii) add 2× enzyme solution to each well of the 384-well assay plate; and (iii) incubate at room temperature for 15 min. Two times substrate solution was transferred to the assay plate. PDE reaction and termination: (i) incubate at 25°C for 40 min; (ii) add stop buffer to stop reaction, and incubate at RT for 60 min. Data were collected on Envision (Perkin Elmer). Data were fitted in Excel to obtain inhibition values using equation (1). Equation (1): Inh % = (Max − Signal)/(Max − Min) × 100. Fit the data in XL-Fit to obtain IC50 values using equation (2). Equation (2): Y = Bottom + (Top − Bottom)/[1 + (IC50/X) × HillSlope]. Y is the % inhibition and X is the compound concentration.

physchem = format: physicochemical; conditions: 37 °C, water, thermodynamic from solid
Method: Aqueous solubility of selected compounds was determined by High Performance Liquid Chromatography (HPLC) analysis. […] The absorption intensity of different concentrations of solutions was obtained by HPLC. The linear regression equation between absorption intensity and concentration was obtained by statistical method (R ^2 >0.99). A supersaturated aqueous solution of the target compound was prepared and shaken in 37°C water bath for 24 h. The supersaturated solution was centrifuged and filtered. The absorption intensity of the supersaturated solution was obtained by HPLC. The concentration of saturated aqueous solution was obtained by linear regression equation, which was the aqueous solubility of target compound.

S. aureus ATCC33591 = test: MIC against other strains, agar double dilution; conditions: Staphylococcus aureus, ATCC33591, 24 h
[3] = test system: Streptococcus pneumoniae ATCC49619; test: MIC against other strains, agar double dilution; conditions: ATCC49619, 24 h
in vitro = in vitro ADME; conditions: rat, plasma, pH 7.4
Method: 0.1 M sodium phosphate and 0.15 M NaCl buffer (pH = 7.4 ± 0.1) were preheated. The frozen plasma was thawed at 37°C. Plasma was centrifuged at 12,000 rpm for 5 min to remove clots. Pipette and collect the supernatant as the plasma to be used in the experiment. Dialysis membrane strips were soaked in distilled water for an hour. Add 20% by volume ethanol and soak for a further 20 min. The membrane strips were then rinsed in distilled water three times before use. Five microliters of 10 mM stock solution were added into 95 µL of acetonitrile (ACN) for reference and test compounds, which was 0.5 mM solution A. Eight microliters of 10 mM stock solution were added into 192 µL of ACN for reference and test compounds, which was 0.02 mM solution B. A 96-well plate with 380 µL aliquots of plasma was preloaded in the wells designated for plasma, respectively. Twenty microliters of solution B (0.02 mM) were spiked into the pre-loaded plasma in the 96-well plate. The final concentration is 1 µM, containing 0.01% DMSO. Aliquots of 100 µL of blank dialysis buffer were applied to the receiver side of dialysis chambers. Then, aliquots of 100 µL of the plasma spiked with test and reference compounds were applied to the donor side of the dialysis chambers (always add the blank buffer to the receiver first, clearly mark the buffer and plasma chamber holes to avoid cross-contamination). […]

M. tuberculosis H37Ra = test: microbe, parasite or virus in culture; format: cell-based, Mycobacterium tuberculosis; conditions: for MIC: Mycobacterium tuberculosis, H37RA, read-out: MIC against H37Ra
H37Rv = test: MIC susceptibility testing against H37Rv; format: cell-based, Mycobacterium tuberculosis; conditions: for Fold increase: B18 versus TBA-7371; for MIC: Mycobacterium tuberculosis
S. epidermidis ATCC12228 = test: MIC against other strains, agar double dilution; conditions: Staphylococcus epidermidis, ATCC12228, 24 h
Y198 (XDR) = test: microbe, parasite or virus in culture; format: cell-based, M. tuberculosis; conditions: for MIC: Mycobacterium tuberculosis
E. faecium ATCC19434 = test: MIC against other strains, agar double dilution; conditions: Enterococcus faecium, ATCC19434, 24 h
E. coli ATCC35218 = test: MIC against other strains, agar double dilution; conditions: Escherichia coli, ATCC35218, 24 h
A549 = test: Cell viability assay (MTT), A549; format: cell-based; conditions: Homo sapiens, 48 h
Method: as §1

Y17 (MDR) = test: microbe, parasite or virus in culture; format: cell-based, M. tuberculosis; conditions: for MIC: Mycobacterium tuberculosis
[4] = test system: Enterococcus faecalis ATCC29212; test: MIC against other strains, agar double dilution; conditions: ATCC29212, 24 h
[5] = test system: Escherichia coli ATCC25922; test: MIC against other strains, agar double dilution; conditions: ATCC25922, 24 h
[6] = test system: Pseudomonas aeruginosa ATCC27853; test: MIC against other strains, agar double dilution; conditions: ATCC27853, 24 h

In the case of `Cc1nc(C)c(CN2CCOc3c(C(=O)NCC(F)(F)F)cc(C4CC4)cc32)nc1C` [B18, 6-cyclopropyl-N-(2,2,2-trifluoroethyl)-4-((3,5,6-trimethylpyrazin-2-yl)methyl)-3,4-dihydro-2H-benzo[b][1,4]oxazine-8-carboxamide], the MIC (Y48 (MDR)) is reported as 0.6 µg/mL (≈ 1.38 µM), the Fold increase (Y48 (MDR); […], B18 versus TBA-7371) is reported as 1 and the MIC [1] is reported as 64 µg/mL (≈ 147 µM). It also gave an IC50 (VERO) greater than 40 µM, an MIC [2] greater than 64 µg/mL and an IC50 (human PDE6C) of 81 µM. For the same molecule, the solubility at 24 h (physchem) was 21 µg/mL (≈ 48.3 µM), the MIC (S. aureus ATCC33591) was greater than 64 µg/mL and the MIC [3] was greater than 64 µg/mL. The fraction unbound at 5 h, 1 µM (in vitro) was 0.042, the MBC/MIC (M. tuberculosis H37Ra) was less than 4 and the “MIC against H37Ra” value (M. tuberculosis H37Ra) was 0.18. For the same molecule, the MIC (M. tuberculosis H37Ra) was 0.18 µg/mL (≈ 0.414 µM), the Fold increase (H37Rv; 3 days) was 4 and the Fold increase (H37Rv; 7 days) was 1. It also gave an MIC (H37Rv; 72 h, 3 days) of 0.625 µg/mL (≈ 1.44 µM), an MIC (H37Rv; 168 h, 7 days) of 0.625 µg/mL (≈ 1.44 µM) and an MIC (S. epidermidis ATCC12228) greater than 64 µg/mL. The MIC (Y198 (XDR)) was 5 µg/mL (≈ 11.5 µM), the Fold increase (Y198 (XDR); […], B18 versus TBA-7371) was 0.25 and the MIC (E. faecium ATCC19434) was greater than 64 µg/mL. It also gave an MIC (E. coli ATCC35218) greater than 64 µg/mL, an IC50 (A549) greater than 40 µM and an MIC (Y17 (MDR)) of 0.6 µg/mL (≈ 1.38 µM). It also gave a Fold increase (Y17 (MDR); […], B18 versus TBA-7371) of 1, an MIC [4] greater than 64 µg/mL and an MIC [5] of 64 µg/mL (≈ 147 µM). It also gave an MIC [6] of 64 µg/mL (≈ 147 µM).
With `COc1ncnc(Cn2cc(C(=O)NCCO)c3ncc(C)cc32)c1C` [TBA-7371, reference compound] the MIC (Y48 (MDR)) was 0.6 µg/mL (≈ 1.69 µM), the MIC [1] was greater than 64 µg/mL and the IC50 (VERO) was greater than 40 µM. The MIC [2] was greater than 64 µg/mL, the MIC (S. aureus ATCC33591) was greater than 64 µg/mL and the MIC [3] was greater than 64 µg/mL. The MIC (M. tuberculosis H37Ra) was 0.18 µg/mL (≈ 0.506 µM), the MIC (H37Rv; 72 h, 3 days) was 2.5 µg/mL (≈ 7.03 µM) and the MIC (H37Rv; 168 h, 7 days) was 0.625 µg/mL (≈ 1.76 µM). It also gave an MIC (S. epidermidis ATCC12228) greater than 64 µg/mL, an MIC (Y198 (XDR)) of 1.25 µg/mL (≈ 3.52 µM) and an MIC (E. faecium ATCC19434) greater than 64 µg/mL. It also gave an MIC (E. coli ATCC35218) greater than 64 µg/mL, an IC50 (A549) greater than 40 µM and an MIC (Y17 (MDR)) of 0.6 µg/mL (≈ 1.69 µM). It also gave an MIC [4] greater than 64 µg/mL, an MIC [5] greater than 64 µg/mL and an MIC [6] greater than 64 µg/mL.
Molecule `Cc1nc(C)c(CN2CCOc3c(C(=O)NC4CCC(F)(F)CC4)cc(C4CC4)cc32)nc1C` [B32, 6-cyclopropyl-N-(4,4-difluorocyclohexyl)-4-((3,5,6-trimethylpyrazin-2-yl)methyl)-3,4-dihydro-2H-benzo[b][1,4]oxazine-8-carboxamide] has an MIC (M. tuberculosis H37Ra) greater than 25 µg/mL.
In the case of `COc1ncc(C(F)(F)F)cc1Cn1ccc2c(C(=O)NCC(F)F)cc(C)cc21` [A10, N-(2,2-difluoroethyl)-1-((2-methoxy-5-(trifluoromethyl)pyridin-3-yl)methyl)-6-methyl-1H-indole-4-carboxamide], the MIC (M. tuberculosis H37Ra) is reported as greater than 6.25 µg/mL.
For `Cc1nc(C)c(CN2CCOc3c(C(=O)NCC(F)F)cc(Br)cc32)nc1C` [B2], the “MIC against H37Ra” value (M. tuberculosis H37Ra) was 0.39 and the MIC (M. tuberculosis H37Ra) was 0.39 µg/mL (≈ 0.857 µM).
Work on `Cc1cc(C)cc(CN2CCOc3c(C(=O)NCC(F)(F)F)cc(C4CC4)cc32)c1` [B22, 6-cyclopropyl-4-(3,5-dimethylbenzyl)-N-(2,2,2-trifluoroethyl)-3,4-dihydro-2H-benzo[b][1,4]oxazine-8-carboxamide] yielded an MIC (M. tuberculosis H37Ra) greater than 25 µg/mL.
Work on `Cc1cc(C(=O)NC2CC2)c2c(c1)N(Cc1nc(C)c(C)nc1C)CCO2` [B14, N-cyclopropyl-6-methyl-4-((3,5,6-trimethylpyrazin-2-yl)methyl)-3,4-dihydro-2H-benzo[b][1,4]oxazine-8-carboxamide] yielded an MIC (M. tuberculosis H37Ra) of 50 µg/mL (≈ 136 µM).
